Laboratory results published in patent publication US9592223B2, “Small molecule inhibitors of MALT1” (Cornell University, priority 2012, dated 2017).
“Also recorded” adds a separate entry of the source. Read-outs that look alike come from different tables or passages of the source.

Columns and labels:
HBL-1 cells = assay: Growth inhibition, ATP-based luminescent assay; format: cell-based; conditions: Homo sapiens, HBL1
Description: (§1) Cell proliferation was determined by ATP quantification using a luminescent method (CellTiter-Glo, Promega, Madison, Wis.) and Trypan blue dye-exclusion (Sigma, St. Louis, Mo.). Cell viability in drug-treated cells was normalized to their respective controls (fractional viability) and results are given as 1-fractional viability. CompuSyn software (Biosoft, Cambridge, UK) was used to determine drug concentrations inhibiting fractional growth compared to controls.
(§2) DLBCL cell lines were grown in exponential growth conditions during the 48 hr of treatment. Cell proliferation was determined by ATP quantification using a luminescent method (CellTiter-Glo, Promega, Madison, Wis.) and Trypan blue dye-exclusion (Sigma, St. Louis, Mo.). Luminescence was measured using the Synergy4 microplate reader (BioTek Instruments, Winooski, Vt.). Standard curves for each cell line were calculated by plotting the cell number (determined by the Trypan blue method) against their luminescence values and number of cells was calculated accordingly. Cell viability in drug-treated cells was normalized to their respective controls (fractional viability) and results are given as 1-fractional viability. CompuSyn software (Biosoft, Cambridge, UK) was used to determine the drug concentration that inhibits the growth of cell lines by […]. Experiments were performed in triplicate.

OCI-Ly10 cells = assay: Growth inhibition, ATP-based luminescent assay; format: cell-based; conditions: Homo sapiens; OCI-Ly10, single dose, 48 hr
Description: as §1, §2

OCI-Ly3 cells = assay: Growth inhibition, ATP-based luminescent assay; format: cell-based; conditions: Homo sapiens; OCI-Ly3, single dose, 48 hr
Description: as §1, §2

Caspase-3 = Caspase-3 (Homo sapiens, UniProt P42574); assay: Caspase selectivity; format: biochemical
nuclear c-REL and p65 = assay: Western blots for c-REL and p65 in nuclear extracts of HBL-1 and TMD8 cells; format: cell-based, human; conditions: 24 hr, 200 nM for HBL-1 and 500 nM for TMD8
Description: MALT1 mediates c-REL translocation to the nucleus following BCR stimulation (Ferch et al., 2007). […] This selectivity towards c-REL had also been previously shown in MALT1 knockout mice and after MALT1 cleavage inhibition by the MALT1 blocking peptide Z-VRPR-FMK (Ferch et al., 2009; Ferch et al., 2007; Hailfinger et al., 2011).
Equal amounts of total protein (20-75 μg) were separated on sodium dodecyl sulfate-polyacrylamide gel electrophoresis (SDS-PAGE), and electrotransferred onto nitrocellulose membranes. Membranes were incubated with primary antibodies (MALT1, BCL-10, CYLD from Santa Cruz Biotechnologies, Santa Cruz, Calif.; A20 from eBioscience, San Diego, Calif.; phospho-IκB-α, IκB-α, c-REL, RELB from Cell Signaling, Danvers, Mass. and α-Tubulin from Sigma), followed by secondary antibodies conjugated to horseradish peroxidase, which were detected by chemiluminescence (Pierce, Thermo Scientific, Rockford, Ill.).

[1] = tested on: HBL-1 ABC-DLBCL xenografts; assay: HBL-1 xenograft in NOD-SCID mice; format: in vivo; conditions: IP 25 mg/kg/day
Description: Animals were sacrificed 24 hr after the fourteenth injection.
Eight-week old male SCID NOD.CB17-Prkdc^scid/J mice were subcutaneously injected with low-passage 10^7 human HBL-1, TMD8 or OCI-Ly1 cells. Treatment was administered by intra-peritoneal injection. Tumor volume was monitored by three-weekly digital calipering. All procedures followed US NIH protocols and were approved by the Animal Institute Committee of the Weill Cornell Medical College.
Eight-week old male SCID NOD.CB17-Prkdc^scid/J mice were purchased from Jackson Laboratories (Bar Harbor, Minn.) and housed in a clean environment. Mice were subcutaneously injected with low-passage 10^7 human TMD8 or OCI-Ly1 cells in 50% matrigel (BD Biosciences, #354234). Treatment was initiated when tumors reached an average size of 120 mm^3 (17 days post-transplantation). Drugs were reconstituted in DMSO and stored at −80° C. until used and were administered by intra-peritoneal injection. Tumor volume was monitored by three-weekly digital calipering (Fisher Scientific, Thermo Scientific, Rockford, Ill.) and calculated using the formula (smallest diameter^2×largest diameter)/2. Data were expressed as mean±SEM, and differences were considered statistically significant at p<0.05 by paired Student's t-test. All procedures involving animals followed US NIH protocols and were approved by the Animal Institute Committee of the Weill Cornell Medical College of Cornell University.
Paraffin-embedded tumor xenografts were sectioned, dewaxed and submitted to antigen retrieval. For IF-P, Alexa Fluor-488 conjugated secondary antibodies from Invitrogen where used and cell nuclei where counterstained with DAPI. Fluorescent images were taken using an Axiovert 200M fluorescent microscope (Carl Zeiss Inc., Thornwood, N.Y.). Oberkochen, Germany). For IHC, biotin-conjugated secondary antibodies where used. Then avidin/biotin peroxidase was applied to the slides (Vector Laboratories). Color was developed with diaminobenzoate chromogen peroxidase substrate (Vector) and counterstained with hematoxilin-eosyn. […]

[2] = tested on: primary human non-GCB DLBCL cells; assay: Primary human DLBCL cells ex vivo, non-GCB cases, Trypan blue; format: cell-based; conditions: 0.8 μM, 48 hr
Description: After 48 hr exposure, cell number and viability were determined using Trypan blue.
Patient de-identified tissues were obtained in accordance with the guidelines and approval of the Weill Cornell Medical College Review Board. Patient samples were processed as previously described (Cerchietti et al., 2010). Briefly, single cell suspensions from lymph node biopsies were obtained by physical disruption of tissues followed by cell density gradient separation (Fico/Lite LymphoH, Atlanta Biologicals, Lawrenceville, Ga.). Cell number and viability were determined by Trypan blue exclusion. Primary DLBCL cells were cultured in 96-well plates. Cells were grown in advanced RPMI medium with 20% FBS supplemented with antibiotics for 48 hours. […] After 48 hr of exposure, viability was determined by using Trypan blue (Sigma). All samples were normalized to their own replicate control. Statistical significance was calculated using paired T-test.

Sequence of Caspase-3 (P42574 29-175 limits assumed, species assumed): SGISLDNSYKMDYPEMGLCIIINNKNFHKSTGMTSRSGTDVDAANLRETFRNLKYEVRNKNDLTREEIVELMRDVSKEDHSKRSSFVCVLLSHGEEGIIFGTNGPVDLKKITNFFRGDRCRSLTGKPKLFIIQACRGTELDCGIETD
Sequence of Caspase-3 (P42574 176-277 limits assumed, species assumed): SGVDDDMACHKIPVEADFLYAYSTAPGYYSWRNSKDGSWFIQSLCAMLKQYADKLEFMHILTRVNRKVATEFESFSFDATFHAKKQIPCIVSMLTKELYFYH

COCCOc1nc(-c2ccc(Cl)c(Cl)c2)n(-c2ccc(NC(=O)CCl)cc2)n1 [MI-2] showed a GI50 (HBL-1 cells; HBL-1, single dose, 48 hr, read-out: GI50) of 200 nM, a GI50 (HBL-1 cells; HBL-1, read-out: GI50 concentration) of 200 nM and a GI50 (OCI-Ly10 cells) of 400 nM. The GI50 (OCI-Ly3 cells) was 400 nM, the “activity against Caspase-3” value (Caspase-3) was “little activity” and the “nuclear c-REL (Western blot)” value (nuclear c-REL and p65) was “clear reduction of nuclear c-REL”. For the same molecule, the “nuclear p65 (Western blot)” value (nuclear c-REL and p65) was “did not affect p65 levels”, the “xenograft growth vs. vehicle” value ([1]; fourteen injections, p=0.014) was “profoundly suppressed the growth” and the “proliferation (Ki-67 staining)” value ([1]; p<0.0001) was “significant decrease in proliferation”. The “apoptotic cells (TUNEL assay)” value ([1]; p=0.0008) was “significant increase in apoptotic cells” and the “response of cell number and viability” value [2] was “two of the non-GCB cases responded; also recorded: One of the non-GCB did not respond”.
